In test [1] the target is isolated recombinant JAK2 kinase domain (Homo sapiens (Human), UniProt O60674). Description: JAK2 enzyme assay (Caliper LabChip, Ki). Conditions: read-out: JAK2 Ki.
Test [2] concerns the target isolated recombinant JAK1 kinase domain (Homo sapiens (Human), UniProt P23458). Description: JAK1 enzyme assay (Caliper LabChip, Ki). The class given is biochemical. As to the method: The activity of the isolated recombinant JAK1 and JAK2 kinase domain was measured by monitoring phosphorylation of a peptide derived from JAK3 ([…] fluorescently labeled on the N-terminus with 5-carboxyfluorescein) using the Caliper LabChip R technology (Caliper Life Sciences, Hopkinton, Mass.).

Test [3] relates to JAK1-dependent STAT6 phosphorylation in BEAS-2B human bronchial epithelial cells. Description: JAK1 pathway assay: IL-13 stimulated STAT6 phosphorylation in BEAS-2B cells. The class given is cell-based. Conditions: BEAS-2B cells, IL-13 stimulation, read-out: IL-13 p-STAT6 BEAS-2B IC50. The method, boiled down:
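BEAS-2B bronchial epithelial cells plated one day before, run in complete growth medium. Phospho-STAT6 in lysates measured by MesoScale Discovery; EC50 reported.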

Molecules are shown by their SMILES. pIC50, pKi: −log10 of the molar value. Where two headings read alike, the source gives them in different places.

Sequence of isolated recombinant JAK2 kinase domain (O60674 849-1124): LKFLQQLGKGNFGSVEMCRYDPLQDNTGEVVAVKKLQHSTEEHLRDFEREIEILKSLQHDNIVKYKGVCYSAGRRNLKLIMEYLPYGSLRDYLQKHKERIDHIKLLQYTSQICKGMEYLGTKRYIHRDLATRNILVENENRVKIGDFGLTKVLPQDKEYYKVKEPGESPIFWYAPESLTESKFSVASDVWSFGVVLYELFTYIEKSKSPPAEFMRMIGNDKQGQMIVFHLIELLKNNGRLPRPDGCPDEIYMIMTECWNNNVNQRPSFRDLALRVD
Sequence of isolated recombinant JAK1 kinase domain (P23458 875-1153): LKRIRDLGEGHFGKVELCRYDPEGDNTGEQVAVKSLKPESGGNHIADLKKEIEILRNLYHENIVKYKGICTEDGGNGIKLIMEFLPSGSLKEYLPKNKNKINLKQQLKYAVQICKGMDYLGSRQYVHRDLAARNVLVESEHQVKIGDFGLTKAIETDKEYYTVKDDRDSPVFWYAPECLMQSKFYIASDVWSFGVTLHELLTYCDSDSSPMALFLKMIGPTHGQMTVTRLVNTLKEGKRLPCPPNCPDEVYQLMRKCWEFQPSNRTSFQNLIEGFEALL

For orientation: pKi means the negative decadic logarithm of the Ki, by convention in mol/L. What is called pIC50 is the negative decadic logarithm of the IC50, by convention in mol/L. As to `CN1CCC[C@@H]1Cn1cc(NC(=O)c2cnn3cccnc23)c(-c2cc3c(cc2OC(F)F)NC(=O)CS3)n1` [Example 73, N-[3-[6-(difluoromethoxy)-3-oxo-4H-1,4-benzothiazin-7-yl]-1-[[(2R)-1-methylpyrrolidin-2-yl]methyl]pyrazol-4-yl]pyrazolo[1,5-a]pyrimidine-3-carboxamide], the pKi is 9.72 in test [1] and 9.70 in test [2]. Also, the pIC50 in test [3] (Homo sapiens, BEAS-2B) was 8.05.

Turning to `CN1CCC[C@H]1Cn1cc(NC(=O)c2cnn3cccnc23)c(-c2cc3cn[nH]c3cc2OC(F)F)n1` [Example 76, N-[3-[6-(difluoromethoxy)-1H-indazol-5-yl]-1-[[(2S)-1-methylpyrrolidin-2-yl]methyl]pyrazol-4-yl]pyrazolo[1,5-a]pyrimidine-3-carboxamide], the pKi in test [1] was 9.28; in test [2], 9.32. Besides, the negative logarithm of the IC50 (pIC50) in test [3] (Homo sapiens, BEAS-2B) is 7.77.

On to `CN1CCC[C@@H]1Cn1cc(NC(=O)c2cnn3cccnc23)c(-c2cc3cn[nH]c3cc2OC(F)F)n1` [Example 77, N-[3-[6-(difluoromethoxy)-1H-indazol-5-yl]-1-[[(2R)-1-methylpyrrolidin-2-yl]methyl]pyrazol-4-yl]pyrazolo[1,5-a]pyrimidine-3-carboxamide], for which the negative-log Ki (pKi) in test [1] is 9.37; in test [2] it was 9.55. The negative-log IC50 (pIC50) in test [3] (Homo sapiens, BEAS-2B) was 8.05.

Regarding `O=C(Nc1cn(CCN[C@@H]2CCOC2)nc1-c1cc2c(cc1OC(F)F)NCCS2)c1cnn2cccnc12` [Example 78, N-[3-[6-(difluoromethoxy)-3,4-dihydro-2H-1,4-benzothiazin-7-yl]-1-[2-[[(3R)-tetrahydrofuran-3-yl]amino]ethyl]pyrazol-4-yl]pyrazolo[1,5-a]pyrimidine-3-carboxamide], the pKi in test [1] is 10.00; in test [2], 9.72. In test [3] (Homo sapiens, BEAS-2B), the pIC50 is 7.89.

With `CNCCn1cc(NC(=O)c2cnn3cccnc23)c(-c2cc3c(cc2OC(F)F)NC(=O)CS3)n1` [Example 79, N-[3-[6-(difluoromethoxy)-3-oxo-4H-1,4-benzothiazin-7-yl]-1-[2-(methylamino)ethyl]pyrazol-4-yl]pyrazolo[1,5-a]pyrimidine-3-carboxamide], the pKi in test [1] was 9.89; in test [2], 9.74. Moreover, the pIC50 in test [3] (Homo sapiens, BEAS-2B) was 7.01.

`CNCCn1cc(NC(=O)c2cnn3cccnc23)c(-c2cc3c(cc2OC(F)F)NCCS3)n1` [Example 81, N-[3-[6-(difluoromethoxy)-3,4-dihydro-2H-1,4-benzothiazin-7-yl]-1-[2-(methylamino)ethyl]pyrazol-4-yl]pyrazolo[1,5-a]pyrimidine-3-carboxamide]: the pKi was 9.96 in test [1] and 9.92 in test [2]. Besides, in test [3] (Homo sapiens, BEAS-2B), the negative-log IC50 (pIC50) is 8.15.

`CN(C)CCn1cc(NC(=O)c2cnn3cccnc23)c(-c2cc3c(cc2OC(F)F)NCCS3)n1` [Example 82, N-[3-[6-(difluoromethoxy)-3,4-dihydro-2H-1,4-benzothiazin-7-yl]-1-[2-(dimethylamino)ethyl]pyrazol-4-yl]pyrazolo[1,5-a]pyrimidine-3-carboxamide]: the pKi in test [1] was 9.80; in test [2] it was 9.64. Also, the pIC50 in test [3] (Homo sapiens, BEAS-2B) was 8.15.

Take `CN(C)CCn1cc(NC(=O)c2cnn3cccnc23)c(-c2cc3c(cc2OC(F)F)NC(=O)CS3)n1` [Example 83, N-[3-[6-(difluoromethoxy)-3-oxo-4H-1,4-benzothiazin-7-yl]-1-[2-(dimethylamino)ethyl]pyrazol-4-yl]pyrazolo[1,5-a]pyrimidine-3-carboxamide]: the pKi is 9.85 in test [1] and 9.64 in test [2]. For the same compound, the pIC50 in test [3] (Homo sapiens, BEAS-2B) was 7.85.

Regarding `O=C(Nc1cn(C2COC2)nc1-c1cc2c(cc1OC(F)F)NCCO2)c1cnn2cccnc12` [Example 84, N-[3-[6-(difluoromethoxy)-3,4-dihydro-2H-1,4-benzoxazin-7-yl]-1-(oxetan-3-yl)pyrazol-4-yl]pyrazolo[1,5-a]pyrimidine-3-carboxamide], the results for the pKi in test [1] and in test [2] were 9.92 and 9.72, respectively. Besides, the negative-log IC50 (pIC50) in test [3] (Homo sapiens, BEAS-2B) was 8.10.

Turning to `O=C(Nc1cn(CCN2CCOCC2)nc1-c1cc2ccccc2cc1OC(F)F)c1cnn2cccnc12` [Example 85, N-[3-[3-(difluoromethoxy)-2-naphthyl]-1-(2-morpholinoethyl)pyrazol-4-yl]pyrazolo[1,5-a]pyrimidine-3-carboxamide], the pKi in test [1] is 8.77; in test [2] it was 8.88. In addition, the negative logarithm of the IC50 (pIC50) in test [3] (Homo sapiens, BEAS-2B) was 7.47.

In the case of `CN1CCC(Cn2cc(NC(=O)c3cnn4cccnc34)c(-c3cc4ccccc4cc3OC(F)F)n2)CC1` [Example 86, N-[3-[3-(difluoromethoxy)-2-naphthyl]-1-[(1-methyl-4-piperidyl)methyl]pyrazol-4-yl]pyrazolo[1,5-a]pyrimidine-3-carboxamide], the results for the pKi in test [1] and in test [2] were 8.99 and 8.82, respectively. For the same compound, the pIC50 in test [3] (Homo sapiens, BEAS-2B) was 7.51.

For `CCn1cc(NC(=O)c2cnn3cccnc23)c(-c2cc3ccccc3cc2OC(F)F)n1` [Example 87, N-[3-[3-(difluoromethoxy)-2-naphthyl]-1-ethyl-pyrazol-4-yl]pyrazolo[1,5-a]pyrimidine-3-carboxamide], the results for the negative logarithm of the Ki (pKi) in test [1] and in test [2] were 9.38 and 9.21, respectively. For the same compound, the pIC50 in test [3] (Homo sapiens, BEAS-2B) is 7.82.

In the case of `Cn1cc(NC(=O)c2cnn3cccnc23)c(-c2cc3c(cc2OC(F)F)NCCS3)n1` [Example 88, N-[3-[6-(difluoromethoxy)-3,4-dihydro-2H-1,4-benzothiazin-7-yl]-1-methyl-pyrazol-4-yl]pyrazolo[1,5-a]pyrimidine-3-carboxamide], the pKi in test [1] was 10.00; in test [2] it was 10.10. Further, the negative logarithm of the IC50 (pIC50) in test [3] (Homo sapiens, BEAS-2B) was 8.30.

For the compound `Cn1cc(NC(=O)c2cnn3cccnc23)c(-c2cc3c(cc2OC(F)F)NCCO3)n1` [Example 89, N-[3-[6-(difluoromethoxy)-3,4-dihydro-2H-1,4-benzoxazin-7-yl]-1-methyl-pyrazol-4-yl]pyrazolo[1,5-a]pyrimidine-3-carboxamide], the results for the pKi in test [1] and in test [2] were 10.00 and 9.92, respectively. Further, the pIC50 in test [3] (Homo sapiens, BEAS-2B) is 8.15.

`Cn1cc(NC(=O)c2cnn3cccnc23)c(-c2cc3c(cc2OC(F)F)NC(=O)CS3)n1` [Example 90, N-[3-[6-(difluoromethoxy)-3-oxo-4H-1,4-benzothiazin-7-yl]-1-methyl-pyrazol-4-yl]pyrazolo[1,5-a]pyrimidine-3-carboxamide]: the negative logarithm of the Ki (pKi) in test [1] and in test [2] was 10.15 throughout. In addition, the pIC50 in test [3] (Homo sapiens, BEAS-2B) was 8.30.

With `Cn1cc(NC(=O)c2cnn3cccnc23)c(-c2cc3sc(C(=O)N4CCNCC4)cc3cc2OC(F)F)n1` [Example 91, N-[3-[5-(difluoromethoxy)-2-(piperazine-1-carbonyl)benzothiophen-6-yl]-1-methyl-pyrazol-4-yl]pyrazolo[1,5-a]pyrimidine-3-carboxamide], the figures for the negative logarithm of the Ki (pKi) in test [1] and in test [2] were 8.73 and 8.39, respectively. In addition, the pIC50 in test [3] (Homo sapiens, BEAS-2B) was 6.51.

Consider `COC(=O)Cn1cc(NC(=O)c2cnn3cccnc23)c(-c2cc3sc(C(N)=O)cc3cc2OC(F)F)n1` [Example 92, methyl 2-[3-[2-carbamoyl-5-(difluoromethoxy)benzothiophen-6-yl]-4-(pyrazolo[1,5-a]pyrimidine-3-carbonylamino)pyrazol-1-yl]acetate], for which the figures for the pKi in test [1] and in test [2] were 9.70 and 9.66, respectively. The pIC50 in test [3] (Homo sapiens, BEAS-2B) is 7.04.

As to `CC1CNc2cc(OC(F)F)c(-c3n[nH]cc3NC(=O)c3cnn4cccnc34)cc2S1` (stereo not drawn) [Example 94, N-[3-[6-(difluoromethoxy)-2-methyl-3,4-dihydro-2H-1,4-benzothiazin-7-yl]-1H-pyrazol-4-yl]pyrazolo[1,5-a]pyrimidine-3-carboxamide], the values for the pKi in test [1] and in test [2] were 10.30 and 10.15, respectively. Moreover, the pIC50 in test [3] is 8.15.

As for `CN(C)C(=O)Cn1cc(NC(=O)c2cnn3cccnc23)c(-c2cc3c(cc2OC(F)F)NCCS3)n1` [Example 99, N-[3-[6-(difluoromethoxy)-3,4-dihydro-2H-1,4-benzothiazin-7-yl]-1-[2-(dimethylamino)-2-oxo-ethyl]pyrazol-4-yl]pyrazolo[1,5-a]pyrimidine-3-carboxamide], the negative logarithm of the Ki (pKi) in test [1] and in test [2] was 9.92 each time. In addition, the pIC50 in test [3] (Homo sapiens, BEAS-2B) is 7.62.

As to `CN(C)C(=O)Cn1cc(NC(=O)c2cnn3cccnc23)c(-c2cc3c(cc2OC(F)F)NCCO3)n1` [Example 100, N-[3-[6-(difluoromethoxy)-3,4-dihydro-2H-1,4-benzoxazin-7-yl]-1-[2-(dimethylamino)-2-oxo-ethyl]pyrazol-4-yl]pyrazolo[1,5-a]pyrimidine-3-carboxamide], the figures for the pKi in test [1] and in test [2] were 9.47 and 9.74, respectively. For the same compound, the pIC50 in test [3] (Homo sapiens, BEAS-2B) was 7.41.

For the compound `CN(C)C(=O)Cn1cc(NC(=O)c2cnn3cccnc23)c(-c2cc3c(cc2OC(F)F)CCO3)n1` [Example 109, N-[3-[5-(difluoromethoxy)-2,3-dihydrobenzofuran-6-yl]-1-[2-(dimethylamino)-2-oxo-ethyl]pyrazol-4-yl]pyrazolo[1,5-a]pyrimidine-3-carboxamide], the pKi in test [1] is 9.38; in test [2], 9.66. The negative logarithm of the IC50 (pIC50) in test [3] (Homo sapiens, BEAS-2B) is 7.66.

Turning to `CC1(C)CNc2cc(OC(F)F)c(-c3n[nH]cc3NC(=O)c3cnn4cccnc34)cc2S1` [Example 110, N-[3-[6-(difluoromethoxy)-2,2-dimethyl-3,4-dihydro-1,4-benzothiazin-7-yl]-1H-pyrazol-4-yl]pyrazolo[1,5-a]pyrimidine-3-carboxamide], the figures for the pKi in test [1] and in test [2] were 10.30 and 10.10, respectively. Further, in test [3] (Homo sapiens, BEAS-2B), the pIC50 was 8.00.

These data come from patent US11155557B2, “Pyrazolopyrimidine compounds and methods of use thereof” (Genentech, Inc., priority 2016, dated 2021).
